The values that follow come from ChEMBL document CHEMBL2424637, “Nucleophilic substitution reactions of 1,4-naphthoquinone and biologic properties of novel S-, S,S-, N-, and N,S-substituted 1,4-naphthoquinone derivatives” (2013).

Converted amounts (≈) assume the structure as drawn. The source made the active and inactive calls. The calls are words filed in the database; no cut-off is given here.

What is called MIC is the lowest concentration that inhibits growth of the organism.

What all share (type): functional
The subject of assay [1] is Yamadazyma tenuis. Put plainly: Antifungal activity against Candida tenuis VKM Y-70 after 24 to 72 hrs by serial dilution technique.
Assay [2] has as its system Mycobacterium. The assay can be described thus: Antibacterial activity against Mycobacterium luteum B-917 at 0.5% after 24 hrs by agar disk diffusion technique.
For assay [3], the system named is Escherichia coli. The assay can be described thus: Antibacterial activity against Escherichia coli B-906 at 0.1% after 24 hrs by agar disk diffusion technique.
The subject of assay [4] is Staphylococcus aureus. The assay can be described thus: Antibacterial activity against Staphylococcus aureus 209-P at 0.5% after 24 hrs by agar disk diffusion technique.
Assay [5] concerns Staphylococcus aureus. The assay can be described thus: Antibacterial activity against Staphylococcus aureus 209-P at 0.1% after 24 hrs by agar disk diffusion technique.
The test system of assay [6] is Staphylococcus aureus. Put plainly: Antibacterial activity against Staphylococcus aureus 209-P after 24 to 72 hrs by serial dilution technique.
Assay [7] deals with Yamadazyma tenuis. The assay can be described thus: Antifungal activity against Candida tenuis VKM Y-70 at 0.5% after 48 to 72 hrs by agar disk diffusion technique. Background: A growth-free zone around the sample is the usual read-out of agar diffusion tests.
Assay [8] deals with Aspergillus niger. Put plainly: Antifungal activity against Aspergillus niger F-1119 at 0.5% after 48 to 72 hrs by agar disk diffusion technique.
In assay [9] the test system is Escherichia coli. The assay can be described thus: Antibacterial activity against Escherichia coli B-906 after 24 to 72 hrs by serial dilution technique.
For assay [10], the system named is Yamadazyma tenuis. Put plainly: Antifungal activity against Candida tenuis VKM Y-70 at 0.1% after 48 to 72 hrs by agar disk diffusion technique.
The test system of assay [11] is Aspergillus niger. The assay can be described thus: Antifungal activity against Aspergillus niger F-1119 after 24 to 72 hrs by serial dilution technique.
Assay [12] relates to Aspergillus niger. Put plainly: Antifungal activity against Aspergillus niger F-1119 at 0.1% after 48 to 72 hrs by agar disk diffusion technique.
Assay [13] deals with Escherichia coli. Put plainly: Antibacterial activity against Escherichia coli B-906 at 0.5% after 24 hrs by agar disk diffusion technique.
Assay [14] relates to Mycobacterium. The assay can be described thus: Antibacterial activity against Mycobacterium luteum B-917 at 0.1% after 24 hrs by agar disk diffusion technique.
The subject of assay [15] is Mycobacterium. Put plainly: Antibacterial activity against Mycobacterium luteum B-917 after 24 to 72 hrs by serial dilution technique.

As for `CCCCOC(=O)CCSC1=C(SCCC(=O)OCCCC)C(=O)c2ccccc2C1=O`, the MIC result in the assay on Yamadazyma tenuis [1], in the assay on Staphylococcus aureus [6], in the assay with Escherichia coli [9], in the assay with Aspergillus niger [11] and in the assay with Mycobacterium [15] was “inactive” throughout. In addition, the “diameter of the inhibition zone (DIZ)” value amounted to 0 mm in the assay with Mycobacterium [2]; 0 mm in the assay with Escherichia coli [3]; 0 mm with Staphylococcus aureus [4]; 0 mm with Staphylococcus aureus [5]; 0 mm with Yamadazyma tenuis [7]; 6 mm in the assay on Aspergillus niger [8]. Moreover, the “diameter of the inhibition zone (DIZ)” value in the assay with Yamadazyma tenuis [10], in the assay on Aspergillus niger [12], in the assay with Escherichia coli [13] and with Mycobacterium [14] was 0 mm throughout.
Consider `COC(=O)CCSC1=C(Sc2c(Cl)c(Cl)c(Cl)c(Cl)c2Cl)C(=O)c2ccccc2C1=O`, for which the MIC against Yamadazyma tenuis [1] was found to be 62.5 mg/L (≈ 112 µM); against Staphylococcus aureus [6], 250 mg/L (≈ 449 µM); against Mycobacterium [15] it was 15.6 mg/L (≈ 28 µM). Moreover, the “diameter of the inhibition zone (DIZ)” value with Mycobacterium [2] was found to be 10.7 mm; with Escherichia coli [3] it was 0 mm; in the assay on Staphylococcus aureus [4], 0 mm; in the assay on Staphylococcus aureus [5], 0 mm; in the assay with Yamadazyma tenuis [7], 0 mm; in the assay with Aspergillus niger [8] it was 0 mm. Also, the “diameter of the inhibition zone (DIZ)” value in the assay on Yamadazyma tenuis [10] came out at 0 mm; with Aspergillus niger [12], 0 mm; in the assay with Escherichia coli [13], 0 mm; in the assay on Mycobacterium [14], 6 mm. Moreover, the MIC result in the assay on Escherichia coli [9] and in the assay with Aspergillus niger [11] was “inactive” each time.
For `CCCCOC(=O)CCSC1=C(Sc2c(Cl)c(Cl)c(Cl)c(Cl)c2Cl)C(=O)c2ccccc2C1=O`, the MIC result in the assay with Yamadazyma tenuis [1], with Staphylococcus aureus [6], in the assay with Escherichia coli [9] and in the assay with Aspergillus niger [11] was “inactive” each time. Further, the “diameter of the inhibition zone (DIZ)” value in the assay on Mycobacterium [2] was determined as 0 mm; in the assay on Escherichia coli [3], 0 mm; in the assay on Staphylococcus aureus [4], 0 mm; in the assay on Staphylococcus aureus [5], 0 mm; in the assay with Yamadazyma tenuis [7], 0 mm; with Aspergillus niger [8], 6 mm. For the same compound, the “diameter of the inhibition zone (DIZ)” value in the assay on Yamadazyma tenuis [10], with Aspergillus niger [12], in the assay on Escherichia coli [13] and in the assay with Mycobacterium [14] was 0 mm each time. Further, in the assay with Mycobacterium [15], inhibition of growth (MIC) required 125 mg/L (≈ 209 µM).
`COC(=O)CCSC1=C(N2CCC3(CC2)OCCO3)C(=O)c2ccccc2C1=O`: the MIC result in the assay on Yamadazyma tenuis [1], with Staphylococcus aureus [6] and with Escherichia coli [9] was “inactive” throughout. Further, the “diameter of the inhibition zone (DIZ)” value in the assay on Mycobacterium [2] amounted to 12.6 mm; with Escherichia coli [3], 0 mm; in the assay on Staphylococcus aureus [4] it was 0 mm; in the assay with Staphylococcus aureus [5] it was 0 mm; in the assay on Yamadazyma tenuis [7], 0 mm; with Aspergillus niger [8], 8.4 mm. For the same compound, the “diameter of the inhibition zone (DIZ)” value with Yamadazyma tenuis [10], in the assay with Aspergillus niger [12], with Escherichia coli [13] and in the assay with Mycobacterium [14] was 0 mm throughout. In addition, the results for the MIC in the assay with Aspergillus niger [11] and in the assay on Mycobacterium [15] were 500 mg/L (≈ 1200 µM) and 250 mg/L (≈ 599 µM), respectively.
